| Structure (SMILES) | melting point [°C] |
| --- | --- |
| NC(=O)c1cc(Cl)cc(-c2cccc3cc(Cc4cccc(C(F)(F)F)c4)sc23)c1 | 139 to 140 |
| CC(=O)C(Cc1cc(C(C)(C)C)c(O)c(C(C)(C)C)c1)(Cc1cc(C(C)(C)C)c(O)c(C(C)(C)C)c1)C(=O)OC1CC(C)(C)NC(C)(C)C1 | 177 to 178 |
| CC(=O)Nc1nc(-c2ccc([N+](=O)[O-])cc2)c[nH]1 | 242 to 244 |
| CC(C)(Oc1ccc(CNc2ccc(Cl)cc2)cc1)C(=O)O | 155 to 158 |
| O=[N+]([O-])c1cc([N+](=O)[O-])c(N2CCSCC2)c(C(F)(F)F)c1 | 120 to 121 |
| CS(=O)(=O)Nc1cccc(Nc2nc(OC3CCCC3)c3nc[nH]c3n2)c1 | 137 to 140 |
| O=[N+]([O-])c1cccc(OCCCl)c1 | 54.5 to 57 |
| CCC1Nc2c(C)cccc2-n2cccc21 (stereo not drawn) | 65 to 68 |
| Cc1[nH]c2ccc(C3=NNC(=O)NC3C)cc2c1C (stereo not drawn) | 292 to 296 |
| Cc1ncc(CNC(=O)c2sc(N3CCN(CC4CC4)C3=O)nc2C)s1 | 165 to 167 |
| COc1cc(C(O)(C(F)(F)F)C(F)(F)F)cc(C)c1O | 44 to 45 |
| Nc1nc2cccnc2c2c1nc(CO)n2CC1(O)CCOCC1 | > 250 |
| CCOC(=O)C[C@@H]1C(=O)N(S(=O)(=O)c2ccc(OC)cc2)C=C[C@@H]1c1ccc(OC)cc1 | 107 to 110 |
| CCOC(=O)Cc1nc(-c2ccc(Cl)cc2)oc1-c1cccs1 | 119 to 120 |
| O=C1OC(c2ccccc2)=NC1Cc1c[nH]c2ccccc12 (stereo not drawn) | 141 to 143 |
| Cc1ccccc1-n1c(-c2sc(Nc3ccc(Cl)cc3)nc2-c2ccccc2)nc2ccccc2c1=O | > 275 |
| CCOC1CCCC(C2NC(=O)C2C(C)O[Si](C)(C)C(C)(C)C)C1O (stereo not drawn) | 136 to 138 |
| Cc1cccc(NC(=O)OC(C)(C)C)c1COc1cccn2c(C)c(C)nc12 | 128 to 131 |
| CC(C)OC(=O)Nc1cccc(-c2ccnc3c(C(=O)c4ccco4)cnn23)c1 | 140 to 143 |
| CCN1C(=O)C(C)(C)C(=O)N(C)c2cc(CN(CCn3cc(C)c4oc(C)cc4c3=O)Cc3cc(C)n(C)n3)ccc21 | 113 to 116 |
| COC(=O)c1ccc([N+](=O)[O-])c(OCCO)c1 | 97 to 98 |
| COC(=O)C(O)Cc1ccc(OCCN(C)c2nc3ccccc3o2)cc1 (stereo not drawn) | 100 to 112 |
| CCOC(=O)c1c(C(F)F)nc(C(F)(F)F)c(C(=O)OC)c1NC(C)C | 37 to 39 |
| O=C(O)c1cccc(-c2cccc(OCc3ccc(Cl)cc3Cl)n2)c1 | 186 to 187 |
| COC(=O)CCC(=O)c1ccc(C)cc1O | 61 to 63 |

| Structure (SMILES) | melting point [°C] |
| --- | --- |
| Cc1ccccc1OCCOS(N)(=O)=O | 81.5 to 83 |
| CCOc1cc(OCCO)cc2c1C(=O)N(COC(=O)c1c(Cl)cccc1Cl)S2(=O)=O | 166 |
| CC(=O)c1nc(C)c[nH]1 | 113 to 115 |
| Cc1oc(-c2ccccc2)nc1COc1ccc(C(C)CCC2SC(=O)NC2=O)cc1 (stereo not drawn) | 64 to 65 |
| CCCCCCOC(C)c1ccc(-c2ccc(C(=O)O)cc2)cc1 (single isomer, unassigned; (+)) | 154 |
| CC(=O)Nc1cc(F)ccc1C(=O)NCCN1CCC2(CC1)C(=O)NCN2c1ccc(F)cc1 | 195 |
| O=C1C[C@H]2CCN(Cc3ccccc3)C[C@H]2c2ccc(F)cc21 (relative stereo) | > 220 |
| Nc1nc2cccnc2c2c1nc(CO)n2Cc1cc(-c2ccc(F)cc2)no1 | 247 to 248 |
| Cc1ccc(N2C(=O)c3cc([N+](=O)[O-])cc([N+](=O)[O-])c3C2=O)cc1 | 182 to 183 |
| CC(C)(C)OC(=O)NCc1ccc(CC(=O)O)cc1 | 89 to 91 |
| CC(C)=CCN1N=C(c2ccc(F)cc2)c2cc(Cl)ccc2CS1(=O)=O | 168 to 169 |
| COc1cc(O)c2c(c1O)CC=CC2 | 142 to 144 |
| CN1CCN(c2nc3cccc4c3n2CCC4)CC1 | 112 to 113 |
| O=C(NCc1ccc(-c2n[nH]c3c2Cc2ccccc2-3)s1)N1CCOCC1 | 240 to 247 |
| CSc1ccc(C(=O)Nc2cccnc2C(=O)Nc2ccc(Cl)cn2)c(OCCN)c1 | 158 to 159 |
| NC(C(=O)O)c1ccsc1 (stereo not drawn) | 283 to 285 |
| N#CC1=C(c2ccncc2)Nc2n[nH]cc2C1c1cccc2nonc12 (stereo not drawn) | 236 |
| CCOC(=O)OC1=C(c2cc(C)ccc2C)C(=O)NC1CC1CCS(=O)CC1 (stereo not drawn) | 103 to 106 |
| OCCC(c1ccccc1)c1cc(Br)ccc1OCc1ccccc1 (stereo not drawn) | 70 |
| COc1ccc(C(=O)NC(N)=NC(=O)Cn2c(Cl)ccc2Cl)cc1 | 215 to 217 |
| COC(=O)Nc1c(Br)cc(S(=O)(=O)N(C)C)cc1Br | 177 to 178 |
| O=C(O)CSC(F)(F)F | 130 |
| CC(n1cncn1)C(O)(Cn1cncn1)c1ccc(F)cc1F (stereo not drawn) | 115 to 116 |
| COc1cc2c(c(Cl)c1Cl)C(=O)C(C)(c1ccc(Cl)cc1)C2 (stereo not drawn) | 176 to 178 |
| CCCCCCCCCCCCN(c1ccccc1)c1cccc2ccccc12 | 116 |

| Structure (SMILES) | melting point [°C] |
| --- | --- |
| CC(C)OC(=O)N1CC(=O)Nc2ccc(Br)cc21 | 159 to 161 |
| COc1ccc2c(c1)Cc1cc(CC(=O)O)ccc1-2 | 200 to 202 |
| CC1=C(C#N)C(C)(c2ccccc2)C(C#N)=C(C)N1 | 195 to 196 |
| CCOC(=O)C1CCN(S(C)(=O)=O)CC1 | 91 to 92 |
| CN1CCC(O)(C#N)CC1 | 130 to 133 |
| Cc1ccc2cc(-c3ccc4ccc5cccc6ccc3c4c56)ccc2n1 | 133 |
| CC1=C(C(=O)c2ccc3c(c2)CCN(C(N)=O)C3)C(C)(C)CCC1 | 86.4 to 87.6 |
| Cc1c(-c2cccnc2)ccc2c(=O)c(C(=O)O)cn(C3CC3)c12 | 247 |
| O=C(Cl)c1cn(CCCCl)c(=O)c2ccccc12 | 101 |
| OCc1ccc(Cn2c(NC3CCN(CC(O)COc4ccc(F)cc4)CC3)nc3ccccc32)o1 (stereo not drawn) | 137 |
| COc1cc(F)ccc1Oc1c(Cl)nc(C)nc1NS(=O)(=O)c1ccc(C(C)(C)C)cc1 | 164 to 165 |
| CC(C#N)c1nc(O)n[nH]1 (stereo not drawn) | 182 to 184 |
| ClC1c2ccccc2-c2ccccc21 | 87 to 89 |
| CCOC(=O)N=P(c1ccccc1)(c1ccccc1)c1ccccc1CN1CCCCC1 | 121 to 123 |
| COC(=O)COc1cc2c(c3c1cc(C)n3Cc1ccccc1)CCC2 | 135 to 138 |
| CCC1CC2C3CCC4=CC(=O)CCC4C3CCC2(C)C1O (stereo not drawn) | 150 to 152 |
| O=[N+]([O-])c1ccc(-c2nn(-c3ccccc3)cc2CO)o1 | 148 to 149 |
| O=C(NCc1ccccc1-c1ccccc1C(=O)NCCc1ccccn1)c1ccccc1 | 135 |
| O=Cc1cccnc1Oc1ccc(F)cc1 | 61 to 62 |
| Nc1nc2c(ncn2OCC(O)CO)c(=O)[nH]1 (stereo not drawn) | 252 to 253 |
| CC1(c2ccccc2)OC(C=Cc2ccsc2)=CC1=O (stereo not drawn) | 75 to 77 |
| CCCCN(CCCC)CCCNS(=O)(=O)c1ccc2c(c1)C(=O)c1cc(S(=O)(=O)NCCCN(CCCC)CCCC)ccc1C2=O | 93 to 95 |
| Cc1nn(-c2ccccn2)c2nc3ccccc3c(N(C)C)c12 | 98 to 101 |
